# Laboratory results reported in PubChem BioAssay AID1963841 (Molecular Pharmacology Branch, DTP, NCI, 2024).
# Test system: 439559-082-T-J2-PDC spheroid viability
# Test: Anticancer human tumor 439559-082-T-J2-PDC patient-derived colon adenocarcinoma cell line growth inhibition [POLQ]
# Details: spheroids with HUVEC and MSC; for IC50: curve of first compound; for viability, T/C: stronger effect = lower value
# Procedure, shortened: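 Three-cell-type spheroids modelling solid tumor plus stroma served as the readout system; POL inhibitors were tested individually and in combination, concentration ranges set by clinical Cmax where known.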
# 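Note: spheroids exposed to compounds for seven days before readout.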
# 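Throughout, for viability, T/C: 100% = DMSO vehicle control viability.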
structure (smiles),measurement,setting,value
O=c1[nH]cc(F)c(=O)[nH]1 + Nc1ccc(C#CCN(C(=O)Cc2ncc(C(F)(F)F)cc2C(F)(F)F)c2ccc(F)cc2)nn1,IC50,second compound 0.0316 µM,> 10 µM
same,IC50,second compound 0.1 µM,> 10 µM
same,IC50,second compound 0.316 µM,> 10 µM
same,IC50,second compound 1 µM,> 10 µM
same,IC50,second compound 3.16 µM,> 10 µM
same,IC50,second compound 10 µM,> 10 µM
same,"viability, T/C","second compound 0.0316 µM, first compound 0.0316 µM",105%
same,"viability, T/C","second compound 0.0316 µM, first compound 0.1 µM",112%
same,"viability, T/C","second compound 0.0316 µM, first compound 0.316 µM",101%
same,"viability, T/C","second compound 0.0316 µM, first compound 1 µM",98%
same,"viability, T/C","second compound 0.0316 µM, first compound 3.16 µM",90.2%
same,"viability, T/C","second compound 0.0316 µM, first compound 10 µM",87.5%
same,"viability, T/C","second compound 0.1 µM, first compound 0.0316 µM",115%
same,"viability, T/C","second compound 0.1 µM, first compound 0.1 µM",97.4%
same,"viability, T/C","second compound 0.1 µM, first compound 0.316 µM",91.4%
same,"viability, T/C","second compound 0.1 µM, first compound 1 µM",92%
same,"viability, T/C","second compound 0.1 µM, first compound 3.16 µM",86.5%
same,"viability, T/C","second compound 0.1 µM, first compound 10 µM",82.5%
same,"viability, T/C","second compound 0.316 µM, first compound 0.0316 µM",116%
same,"viability, T/C","second compound 0.316 µM, first compound 0.1 µM",104%
same,"viability, T/C","second compound 0.316 µM, first compound 0.316 µM",105%
same,"viability, T/C","second compound 0.316 µM, first compound 1 µM",95.9%
same,"viability, T/C","second compound 0.316 µM, first compound 3.16 µM",83.1%
same,"viability, T/C","second compound 0.316 µM, first compound 10 µM",85.3%
same,"viability, T/C","second compound 1 µM, first compound 0.0316 µM",104%
same,"viability, T/C","second compound 1 µM, first compound 0.1 µM",94.8%
same,"viability, T/C","second compound 1 µM, first compound 0.316 µM",101%
same,"viability, T/C","second compound 1 µM, first compound 1 µM",81.9%
same,"viability, T/C","second compound 1 µM, first compound 3.16 µM",84.5%
same,"viability, T/C","second compound 1 µM, first compound 10 µM",81.4%
same,"viability, T/C","second compound 3.16 µM, first compound 0.0316 µM",103%
same,"viability, T/C","second compound 3.16 µM, first compound 0.1 µM",99.9%
same,"viability, T/C","second compound 3.16 µM, first compound 0.316 µM",84.2%
same,"viability, T/C","second compound 3.16 µM, first compound 1 µM",85.5%
same,"viability, T/C","second compound 3.16 µM, first compound 3.16 µM",86.6%
same,"viability, T/C","second compound 3.16 µM, first compound 10 µM",80.5%
same,"viability, T/C","second compound 10 µM, first compound 0.0316 µM",109%
same,"viability, T/C","second compound 10 µM, first compound 0.1 µM",91.3%
same,"viability, T/C","second compound 10 µM, first compound 0.316 µM",102%
same,"viability, T/C","second compound 10 µM, first compound 1 µM",83.4%
same,"viability, T/C","second compound 10 µM, first compound 3.16 µM",87.9%
same,"viability, T/C","second compound 10 µM, first compound 10 µM",78.7%
